Source: PubChem BioAssay AID192 (DTP/NCI, 2004)
Several values for one entry are separate records, joined by “and”; a condition that tells them apart may be missing. Identical values can stand only once. Toxic doses and inconclusive results are not listed. Numbered stars: 1 amine (or outer) side, 2 acyl side, 3 side chain; on linkers, the order of the positions; unused ones are H or OH. Bridge positions count the residues as written; N and C are the ends. Square brackets hold non-standard residues; d marks the D form. Peptide text beside a SMILES is read from it. I, II: the chains in the order shown. Actinocin(9to1) = Cc1c2oc3c(C)ccc(C(=O)[*:1])c3nc-2c(C(=O)[*:2])c(N)c1=O; NMeV = CN[CH](C(=O)O)C(C)C; Aze = O=C(O)[CH]1CCN1; Sar = CNCC(=O)O

System: BDF1 mice, B16 melanoma ip, median survival T/C
Assay: NCI In Vivo Anticancer Drug Screen. Data for tumor model B16 Melanoma (intraperitoneal) in B6D2F1 (BDF1) mice
Conditions: endpoint: median survival time, higher = longer survival
Method in brief: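 Read-out: survival or tumor size, given as treated/control ratio. Controls received vehicle only; animals bore transplantable tumors.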

[1] = dose: 12.5 mg/kg/injection, schedule: Q01DX009 (ip), vehicle: Klucel (hydroxypropylcellulose) (HPC)
[2] = dose: 25.0 mg/kg/injection, schedule: Q01DX009 (ip), vehicle: Klucel (hydroxypropylcellulose) (HPC)
[3] = dose: 50.0 mg/kg/injection, schedule: Q01DX009 (ip), vehicle: Klucel (hydroxypropylcellulose) (HPC)
[4] = dose: 100.0 mg/kg/injection, schedule: Q01DX009 (ip), vehicle: Klucel (hydroxypropylcellulose) (HPC)
[5] = dose: 6.25 mg/kg/injection, schedule: Q01DX009 (ip), vehicle: saline
[6] = dose: 12.5 mg/kg/injection, schedule: Q01DX009 (ip), vehicle: saline
[7] = dose: 200.0 mg/kg/injection, schedule: Q01DX009 (ip), vehicle: Klucel (hydroxypropylcellulose) (HPC)
[8] = dose: 100.0 mg/kg/injection, schedule: Q04DX003 (ip), vehicle: Klucel (hydroxypropylcellulose) (HPC)
[9] = dose: 200.0 mg/kg/injection, schedule: Q04DX003 (ip), vehicle: Klucel (hydroxypropylcellulose) (HPC)
[10] = dose: 400.0 mg/kg/injection, schedule: Q04DX003 (ip), vehicle: Klucel (hydroxypropylcellulose) (HPC)
[11] = dose: 50.0 mg/kg/injection, schedule: Q04DX003 (ip), vehicle: saline
[12] = dose: 100.0 mg/kg/injection, schedule: Q04DX003 (ip), vehicle: saline

`COc1ccccc1C(=O)c1ccccc1Cc1cccc2ccccc12` was tested, and the T/C (dose: 50.0 mg/kg/injection, schedule: Q01DX009 (ip), vehicle: saline with Tween-80) was 98 % of control, the T/C (dose: 100.0 mg/kg/injection, schedule: Q01DX009 (ip), vehicle: saline with Tween-80) was 97 % of control and the T/C (dose: 200.0 mg/kg/injection, schedule: Q01DX009 (ip), vehicle: saline with Tween-80) was 92 % of control. For the same molecule, the T/C (dose: 400.0 mg/kg/injection, schedule: Q01DX009 (ip), vehicle: saline with Tween-80) was 93 % of control.
With `O=c1oc2c3ccccc3c3ccccc3c2o1` the T/C (dose: 1.56 mg/kg/injection, schedule: Q01DX009 (ip), vehicle: Klucel (hydroxypropylcellulose) (HPC)) was 100 % of control, the T/C (dose: 3.12 mg/kg/injection, schedule: Q01DX009 (ip), vehicle: Klucel (hydroxypropylcellulose) (HPC)) was 96 % of control and the T/C (dose: 6.25 mg/kg/injection, schedule: Q01DX009 (ip), vehicle: Klucel (hydroxypropylcellulose) (HPC)) was 113 % of control. The T/C [1] was 106 % of control and the T/C [2] was 86 % of control and 96 % of control.
`CC(=N\O)/C(C)=N/O.CC(=N\O)/C(C)=N/O.CC(=N\O)/C(C)=N/O.CC(=N\O)/C(C)=N/O.[CH3-].[CH3-].[Co].[Co]` was tested, and the T/C [2] was 107 % of control, the T/C [3] was 90 % of control and the T/C [4] was 100 % of control.
For `C[N+](C)([O-])CCC=C1c2ccccc2CCc2ccccc21`, the T/C [5] was 95 % of control, the T/C [6] was 90 % of control and the T/C (dose: 50.0 mg/kg/injection, schedule: Q01DX009 (ip), vehicle: saline) was 90 % of control.
With `O=C(C(=O)c1ccc(Br)cc1)c1ccc(Br)cc1` the T/C [1] was 108 % of control, the T/C [2] was 107 % of control and the T/C [3] was 91 % of control.
`O=c1ssc(=Nc2ccccc2)n1-c1ccccc1` was tested, and the T/C [1] was 102 % of control, the T/C [2] was 102 % of control and the T/C [3] was 100 % of control. For the same molecule, the T/C [4] was 106 % of control and the T/C [7] was 91 % of control.
With `CN(C)c1ccc2c(SCC(=O)OCC(=O)[C@@]3(O)CC[C@H]4[C@@H]5CCC6=CC(=O)C=C[C@]6(C)[C@H]5C(=O)C[C@@]43C)c3ccc(N(C)C)cc3nc2c1` the T/C [2] was 101 % of control, the T/C [3] was 96 % of control and the T/C [4] was 101 % of control. The T/C [7] was 113 % of control and the T/C (dose: 400.0 mg/kg/injection, schedule: Q01DX009 (ip), vehicle: Klucel (hydroxypropylcellulose) (HPC)) was 98 % of control.
In the case of `CCOC1c2cc(OC)ccc2C(=O)CCN1S(=O)(=O)c1ccc(C)cc1` (stereo not drawn), the T/C [8] is reported as 93 % of control, the T/C [9] is reported as 102 % of control and the T/C [10] is reported as 102 % of control.
With `Nc1nc(Nc2ccccc2)nc(C(=O)O)n1` the T/C [8] was 100 % of control, the T/C [9] was 97 % of control and the T/C [10] was 92 % of control.
For `O=C(O)C(=O)O.O=C([O-])C(=O)[O-].O=C([O-])C(=O)[O-].[NH-]CC[NH-].[NH-]CC[NH-].[NH-]CC[NH-].[Ru+4].[Ru+5]`, the T/C (dose: 12.5 mg/kg/injection, schedule: Q04DX003 (ip), vehicle: water) was 112 % of control and the T/C (dose: 25.0 mg/kg/injection, schedule: Q04DX003 (ip), vehicle: water) was 107 % of control.
With `CC1(C)N=C(N)N=C(N)N1c1cccc(C#N)c1` the T/C (dose: 25.0 mg/kg/injection, schedule: Q01DX005 (ip), vehicle: saline) was 95 % of control, the T/C (dose: 50.0 mg/kg/injection, schedule: Q01DX005 (ip), vehicle: saline) was 100 % of control and the T/C [11] was 115 % of control. The T/C (dose: 100.0 mg/kg/injection, schedule: Q01DX005 (ip), vehicle: saline) was 104 % of control and the T/C [12] was 93 % of control.
`CC[P+](CC)(CC)c1ccccc1` was tested, and the T/C [5] was 101 % of control, the T/C [6] was 110 % of control and the T/C (dose: 25.0 mg/kg/injection, schedule: Q01DX009 (ip), vehicle: saline) was 111 % of control.
With `N#C/C(=C\c1ccncc1)c1csc2ccccc12` the T/C [3] was 88 % of control and the T/C [4] was 89 % of control.
`NNC(=O)c1ccc(Cl)cc1Nc1ccc(F)cc1` was tested, and the T/C (dose: 25.0 mg/kg/injection, schedule: Q04DX003 (ip), vehicle: saline) was 92 % of control, the T/C [11] was 97 % of control and the T/C [12] was 100 % of control.
With `Cc1nc(SCc2ccc(Cl)cc2)[nH]c(=O)c1CCO` the T/C (dose: 100.0 mg/kg/injection, schedule: Q04DX003 (ip), vehicle: saline with Tween-80) was 100 % of control, the T/C (dose: 200.0 mg/kg/injection, schedule: Q04DX003 (ip), vehicle: saline with Tween-80) was 102 % of control and the T/C (dose: 400.0 mg/kg/injection, schedule: Q04DX003 (ip), vehicle: saline with Tween-80) was 92 % of control.
For `N=[N+]=CC(=O)OCC(N)C(=O)O` (stereo not drawn), the T/C (dose: 1.5 mg/kg/injection, schedule: Q01DX009 (ip), vehicle: other) was 100 % of control, the T/C (dose: 3.13 mg/kg/injection, schedule: Q01DX009 (ip), vehicle: saline) was 100 % of control and the T/C (dose: 5.0 mg/kg/injection, schedule: Q04DX003 (ip), vehicle: water) was 102 % of control. For the same molecule, the T/C [5] was 102 % of control, the T/C (dose: 10.0 mg/kg/injection, schedule: Q04DX003 (ip), vehicle: other) was 100 % of control and the T/C [6] was 105 % of control. For the same molecule, the T/C (dose: 15.0 mg/kg/injection, schedule: Q04DX003 (ip), vehicle: water) was 115 % of control, the T/C (dose: 20.0 mg/kg/injection, schedule: Q04DX003 (ip), vehicle: other) was 100 % of control and the T/C (dose: 375.0 micrograms/kg/injection, schedule: Q01DX009 (ip), vehicle: water) was 118 % of control. For the same molecule, the T/C (dose: 750.0 micrograms/kg/injection, schedule: Q01DX009 (ip), vehicle: water) was 107 % of control.
In the case of `O=C(CCN1CC1)Nc1ccc(NC(=O)CCN2CC2)cc1`, the T/C (dose: 5.0 mg/kg/injection, schedule: Q04DX003 (ip), vehicle: Klucel (hydroxypropylcellulose) (HPC)) is reported as 170 % of control, the T/C (dose: 10.0 mg/kg/injection, schedule: Q04DX003 (ip), vehicle: Klucel (hydroxypropylcellulose) (HPC)) is reported as 173 % of control and 184 % of control and the T/C (dose: 20.0 mg/kg/injection, schedule: Q04DX003 (ip), vehicle: Klucel (hydroxypropylcellulose) (HPC)) is reported as 160 % of control and 175 % of control. The T/C (dose: 40.0 mg/kg/injection, schedule: Q04DX003 (ip), vehicle: Klucel (hydroxypropylcellulose) (HPC)) was 105 % of control.
For `O=NN(CCBr)C(=O)NCCBr`, the T/C (dose: 50.0 mg/kg/injection, schedule: Q01DX009 (ip), vehicle: gum acacia) was 107 % of control, the T/C (dose: 66.0 mg/kg/injection, schedule: Q01DX009 (ip), vehicle: gum acacia) was 109 % of control and the T/C (dose: 100.0 mg/kg/injection, schedule: Q01DX009 (ip), vehicle: gum acacia) was 116 % of control.
For `Cc1c2oc3c(C)ccc(C(=O)NC4C(=O)NC(C(C)C)C(=O)N5CCC5C(=O)N(C)CC(=O)N(C)C(C(C)C)C(=O)OC4C)c3nc-2c(C(=O)NC2C(=O)NC(C(C)C)C(=O)N3CCC3C(=O)N(C)CC(=O)N(C)C(C(C)C)C(=O)OC2C)c(N)c1=O` (stereo not drawn) (I: TV[Aze][Sar][NMeV] / II: TV[Aze][Sar][NMeV]; ester I:1-I:C, II:1-II:C; linker I:N-II:N via Actinocin(9to1); configuration not given here), the T/C (dose: 0.3 mg/kg/injection, schedule: Q04DX003 (ip), vehicle: saline + alcohol) was 169 % of control, the T/C (dose: 0.45 mg/kg/injection, schedule: Q04DX003 (ip), vehicle: saline + alcohol) was 163 % of control and the T/C (dose: 100.0 micrograms/kg/injection, schedule: Q01DX009 (ip), vehicle: saline + alcohol) was 159 % of control. For the same molecule, the T/C (dose: 150.0 micrograms/kg/injection, schedule: Q01DX009 (ip), vehicle: saline + alcohol) was 161 % of control.
`O=P(O)(O)OCCCl` was tested, and the T/C [8] was 100 % of control, the T/C [9] was 94 % of control and the T/C [10] was 103 % of control.
`C=C1C(C)C2C(Cc3ccccc3)NC(=O)C23OC(=O)/C=C\CC(=O)CCC(C)C/C=C/C3C1O` (stereo not drawn) was tested, and the T/C (dose: 2.5 mg/kg/injection, schedule: Q01DX009 (ip), vehicle: Klucel (hydroxypropylcellulose) (HPC)) was 94 % of control.
`COc1ccc(N=NN(C(C)=O)c2ccccc2)cc1` was tested, and the T/C [4] was 102 % of control and the T/C [7] was 102 % of control.
For `Nc1ncn(C2OC(CO)C(O)C2O)c(=O)n1` (stereo not drawn), the T/C (dose: 0.25 mg/kg/injection, schedule: Q01DX009 (ip), vehicle: suspension in saline) was 90 % of control, the T/C (dose: 0.5 mg/kg/injection, schedule: Q01DX009 (ip), vehicle: suspension in saline) was 112 % of control and the T/C (dose: 0.75 mg/kg/injection, schedule: Q01DX009 (ip), vehicle: saline with Tween-80) was 118 % of control. The T/C (dose: 1.0 mg/kg/injection, schedule: Q01DX009 (ip), vehicle: suspension in saline) was 91 % of control, the T/C (dose: 1.5 mg/kg/injection, schedule: Q01DX009 (ip), vehicle: saline with Tween-80) was 124 % of control and the T/C (dose: 2.0 mg/kg/injection, schedule: Q01DX009 (ip), vehicle: suspension in saline) was 92 % of control.
In the case of `S=C1NC(c2ccccc2)NC(c2ccccc2)S1` (stereo not drawn), the T/C (dose: 100.0 mg/kg/injection, schedule: Q01DX009 (ip), vehicle: other) is reported as 100 % of control, the T/C (dose: 200.0 mg/kg/injection, schedule: Q01DX009 (ip), vehicle: other) is reported as 94 % of control and the T/C (dose: 400.0 mg/kg/injection, schedule: Q01DX009 (ip), vehicle: other) is reported as 86 % of control.
